In ChEMBL document CHEMBL5291721, “A preclinical secondary pharmacology resource illuminates target-adverse drug reaction associations of marketed drugs” (Nat Commun, 2023):

Columns and labels:
Cannabinoid receptor 1 = Cannabinoid receptor 1 (Homo sapiens, UniProt P21554); format: functional, cell-based
[1] = target: T1, Gamma-aminobutyric acid receptor subunit alpha-1 (Rattus norvegicus, UniProt P62813); format: functional
[2] = target: T2, Alpha-2A adrenergic receptor (Homo sapiens, UniProt P08913); format: functional, cell-based
T2 sequence (P08913 whole entry): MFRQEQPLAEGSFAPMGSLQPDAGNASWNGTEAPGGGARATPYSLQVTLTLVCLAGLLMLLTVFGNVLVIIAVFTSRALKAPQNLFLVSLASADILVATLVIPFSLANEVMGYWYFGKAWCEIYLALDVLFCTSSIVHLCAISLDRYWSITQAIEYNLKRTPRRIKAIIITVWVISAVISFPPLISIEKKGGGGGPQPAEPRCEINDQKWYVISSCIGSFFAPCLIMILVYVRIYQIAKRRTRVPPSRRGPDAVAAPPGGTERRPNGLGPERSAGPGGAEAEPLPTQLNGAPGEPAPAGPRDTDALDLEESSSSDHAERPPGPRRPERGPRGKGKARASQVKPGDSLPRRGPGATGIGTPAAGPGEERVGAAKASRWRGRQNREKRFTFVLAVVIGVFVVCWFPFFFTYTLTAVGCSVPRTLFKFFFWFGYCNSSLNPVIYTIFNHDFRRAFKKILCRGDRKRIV

Thromboxane A2 receptor = target: T3, Thromboxane A2 receptor (Homo sapiens, UniProt P21731)
T3 sequence (P21731 whole entry): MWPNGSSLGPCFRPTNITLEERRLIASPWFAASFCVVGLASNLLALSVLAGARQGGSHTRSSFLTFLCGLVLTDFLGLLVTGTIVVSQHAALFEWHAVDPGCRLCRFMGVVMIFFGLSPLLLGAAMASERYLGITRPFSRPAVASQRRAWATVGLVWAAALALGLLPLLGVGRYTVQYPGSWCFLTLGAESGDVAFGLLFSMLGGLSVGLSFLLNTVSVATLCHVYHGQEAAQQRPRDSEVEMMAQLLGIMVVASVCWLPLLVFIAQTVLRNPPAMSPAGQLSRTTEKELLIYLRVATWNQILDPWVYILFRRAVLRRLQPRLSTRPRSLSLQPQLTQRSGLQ

[3] = target: 5-hydroxytryptamine receptor 2B (Homo sapiens, UniProt P41595); format: functional, cell-based
5-hydroxytryptamine receptor 2B, sequence (P41595 whole entry): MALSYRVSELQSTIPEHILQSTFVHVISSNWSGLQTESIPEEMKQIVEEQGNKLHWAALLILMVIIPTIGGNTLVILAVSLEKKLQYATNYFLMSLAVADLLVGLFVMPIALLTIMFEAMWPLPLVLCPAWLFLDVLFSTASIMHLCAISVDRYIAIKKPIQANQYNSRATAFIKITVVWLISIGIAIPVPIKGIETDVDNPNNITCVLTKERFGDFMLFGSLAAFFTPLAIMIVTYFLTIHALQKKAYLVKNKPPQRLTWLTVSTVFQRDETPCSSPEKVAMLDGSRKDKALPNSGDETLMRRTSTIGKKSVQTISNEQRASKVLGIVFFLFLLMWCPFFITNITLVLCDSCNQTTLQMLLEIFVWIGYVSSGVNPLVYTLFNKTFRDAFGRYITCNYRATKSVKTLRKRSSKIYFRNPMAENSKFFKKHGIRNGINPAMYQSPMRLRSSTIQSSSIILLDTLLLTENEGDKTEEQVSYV

[4] = target: T1, Gamma-aminobutyric acid receptor subunit alpha-1
[5] = target: T4, Alpha-2C adrenergic receptor (Homo sapiens, UniProt P18825); format: functional
T4 sequence (P18825 whole entry): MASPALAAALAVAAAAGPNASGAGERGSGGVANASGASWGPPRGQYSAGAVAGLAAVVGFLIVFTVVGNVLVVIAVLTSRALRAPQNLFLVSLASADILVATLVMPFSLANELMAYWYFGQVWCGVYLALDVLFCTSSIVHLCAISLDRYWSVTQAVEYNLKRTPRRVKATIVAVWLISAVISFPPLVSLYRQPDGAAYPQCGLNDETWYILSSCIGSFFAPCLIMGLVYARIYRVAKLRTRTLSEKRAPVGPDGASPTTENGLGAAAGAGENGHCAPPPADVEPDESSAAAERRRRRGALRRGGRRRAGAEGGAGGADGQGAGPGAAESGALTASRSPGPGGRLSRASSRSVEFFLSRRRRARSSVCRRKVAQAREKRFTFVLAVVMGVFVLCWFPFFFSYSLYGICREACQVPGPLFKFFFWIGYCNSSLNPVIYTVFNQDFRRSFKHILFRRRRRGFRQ

[6] = target: Beta-1 adrenergic receptor (Homo sapiens, UniProt P08588); format: functional
Beta-1 adrenergic receptor, sequence (P08588 whole entry): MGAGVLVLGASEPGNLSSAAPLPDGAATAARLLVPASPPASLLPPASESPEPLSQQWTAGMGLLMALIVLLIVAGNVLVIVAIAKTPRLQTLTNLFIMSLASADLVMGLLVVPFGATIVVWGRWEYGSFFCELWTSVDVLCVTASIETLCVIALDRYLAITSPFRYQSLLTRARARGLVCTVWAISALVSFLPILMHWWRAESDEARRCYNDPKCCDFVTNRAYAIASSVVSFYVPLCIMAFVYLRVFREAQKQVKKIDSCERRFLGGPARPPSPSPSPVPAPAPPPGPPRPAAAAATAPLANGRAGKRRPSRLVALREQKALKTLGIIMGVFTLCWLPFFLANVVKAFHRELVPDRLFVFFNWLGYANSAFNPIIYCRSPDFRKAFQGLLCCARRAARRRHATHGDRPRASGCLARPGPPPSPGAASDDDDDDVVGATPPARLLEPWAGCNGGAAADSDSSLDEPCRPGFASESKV

Mu-type opioid receptor = Mu-type opioid receptor (Homo sapiens, UniProt P35372)
Mu-type opioid receptor, sequence (P35372 whole entry): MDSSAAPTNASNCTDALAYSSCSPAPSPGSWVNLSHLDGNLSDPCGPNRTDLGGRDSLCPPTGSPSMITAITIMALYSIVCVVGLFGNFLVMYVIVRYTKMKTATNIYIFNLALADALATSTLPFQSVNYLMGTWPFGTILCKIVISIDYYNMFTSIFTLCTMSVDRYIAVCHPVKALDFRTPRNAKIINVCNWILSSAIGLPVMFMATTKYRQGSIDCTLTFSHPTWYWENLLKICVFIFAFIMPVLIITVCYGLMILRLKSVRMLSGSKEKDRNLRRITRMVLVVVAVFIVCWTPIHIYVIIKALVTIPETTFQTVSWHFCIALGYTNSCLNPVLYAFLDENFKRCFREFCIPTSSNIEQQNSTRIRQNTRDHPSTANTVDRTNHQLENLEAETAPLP

[7] = target: T5, Cholecystokinin receptor type A (Homo sapiens, UniProt P32238)
T5 sequence (P32238 whole entry): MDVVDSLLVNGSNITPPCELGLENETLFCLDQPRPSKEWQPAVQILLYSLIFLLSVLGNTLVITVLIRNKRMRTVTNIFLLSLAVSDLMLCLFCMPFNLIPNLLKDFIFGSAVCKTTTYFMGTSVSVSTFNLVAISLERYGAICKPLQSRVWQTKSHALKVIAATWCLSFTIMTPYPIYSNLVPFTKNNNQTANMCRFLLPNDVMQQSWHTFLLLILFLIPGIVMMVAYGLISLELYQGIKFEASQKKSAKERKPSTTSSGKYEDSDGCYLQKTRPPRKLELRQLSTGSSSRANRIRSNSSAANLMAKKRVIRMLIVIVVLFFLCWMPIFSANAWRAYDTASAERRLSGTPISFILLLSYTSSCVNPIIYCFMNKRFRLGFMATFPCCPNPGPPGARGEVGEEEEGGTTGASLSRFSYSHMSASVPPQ

Adenosine receptor A3 = target: T6, Adenosine receptor A3 (Homo sapiens, UniProt P0DMS8)
T6 sequence (P0DMS8 whole entry): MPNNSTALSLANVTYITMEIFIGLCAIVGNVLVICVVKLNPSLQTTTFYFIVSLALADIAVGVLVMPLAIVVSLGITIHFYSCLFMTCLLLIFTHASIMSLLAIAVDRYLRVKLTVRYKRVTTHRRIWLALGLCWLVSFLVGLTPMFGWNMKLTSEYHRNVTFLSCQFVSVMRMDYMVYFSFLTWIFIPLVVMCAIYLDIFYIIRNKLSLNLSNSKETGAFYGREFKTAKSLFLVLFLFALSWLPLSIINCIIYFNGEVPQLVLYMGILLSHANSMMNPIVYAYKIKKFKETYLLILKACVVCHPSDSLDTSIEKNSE

[8] = target: Sodium-dependent serotonin transporter (Homo sapiens, UniProt P31645)
Sodium-dependent serotonin transporter, sequence (P31645 whole entry): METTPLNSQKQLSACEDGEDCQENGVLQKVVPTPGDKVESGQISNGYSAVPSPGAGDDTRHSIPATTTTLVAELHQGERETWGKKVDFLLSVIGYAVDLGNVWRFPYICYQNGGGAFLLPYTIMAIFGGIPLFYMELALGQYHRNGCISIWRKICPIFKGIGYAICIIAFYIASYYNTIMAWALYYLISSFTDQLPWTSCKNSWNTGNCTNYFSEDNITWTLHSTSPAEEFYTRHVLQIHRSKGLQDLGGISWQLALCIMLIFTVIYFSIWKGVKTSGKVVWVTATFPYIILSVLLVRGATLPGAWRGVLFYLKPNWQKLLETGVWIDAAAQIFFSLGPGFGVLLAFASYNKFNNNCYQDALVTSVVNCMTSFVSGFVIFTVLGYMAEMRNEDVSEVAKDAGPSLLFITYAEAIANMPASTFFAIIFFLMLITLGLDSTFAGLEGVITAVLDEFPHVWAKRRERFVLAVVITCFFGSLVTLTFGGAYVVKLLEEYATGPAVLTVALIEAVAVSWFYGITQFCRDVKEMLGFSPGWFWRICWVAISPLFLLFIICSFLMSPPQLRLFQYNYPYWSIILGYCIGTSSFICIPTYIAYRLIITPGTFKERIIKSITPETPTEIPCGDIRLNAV
Also: assay procedure not described here.

Cannabinoid receptor 1, sequence (P21554 whole entry): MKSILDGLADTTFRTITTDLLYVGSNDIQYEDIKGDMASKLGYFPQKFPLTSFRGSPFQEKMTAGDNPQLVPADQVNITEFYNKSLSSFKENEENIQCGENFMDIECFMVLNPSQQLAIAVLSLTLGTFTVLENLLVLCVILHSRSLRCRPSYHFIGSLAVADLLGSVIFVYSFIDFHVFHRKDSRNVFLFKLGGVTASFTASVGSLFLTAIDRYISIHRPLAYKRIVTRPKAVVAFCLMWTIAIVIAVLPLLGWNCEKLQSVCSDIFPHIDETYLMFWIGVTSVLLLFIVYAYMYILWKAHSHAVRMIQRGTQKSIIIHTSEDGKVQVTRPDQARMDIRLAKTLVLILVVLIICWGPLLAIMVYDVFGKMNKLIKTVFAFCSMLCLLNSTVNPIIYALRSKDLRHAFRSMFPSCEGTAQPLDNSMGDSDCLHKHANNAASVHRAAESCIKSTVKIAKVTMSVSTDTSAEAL
T1 sequence (P62813 whole entry): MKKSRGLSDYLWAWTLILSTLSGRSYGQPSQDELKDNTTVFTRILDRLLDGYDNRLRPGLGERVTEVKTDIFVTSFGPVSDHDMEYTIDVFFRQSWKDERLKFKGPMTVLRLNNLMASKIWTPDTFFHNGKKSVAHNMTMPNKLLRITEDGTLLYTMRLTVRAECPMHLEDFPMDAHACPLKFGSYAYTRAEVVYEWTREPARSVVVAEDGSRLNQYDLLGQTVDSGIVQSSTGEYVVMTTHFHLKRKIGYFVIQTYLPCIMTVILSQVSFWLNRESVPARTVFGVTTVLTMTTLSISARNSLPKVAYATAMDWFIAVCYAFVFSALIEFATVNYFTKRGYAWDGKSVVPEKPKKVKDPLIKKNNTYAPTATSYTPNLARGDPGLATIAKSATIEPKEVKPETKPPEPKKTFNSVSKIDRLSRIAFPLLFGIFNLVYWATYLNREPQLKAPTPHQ

Compound	AC50 (Cannabinoid receptor 1) [µM]	AC50 [1] [µM]	AC50 [2] [µM]	AC50 (Thromboxane A2 receptor) [µM]	AC50 [3] [µM]	AC50 [4] [µM]	AC50 [5] [µM]	AC50 [6] [µM]	AC50 (Mu-type opioid receptor) [µM]	AC50 [7] [µM]	AC50 (Adenosine receptor A3) [µM]	AC50 [8] [µM]
Nc1ccc(S(=O)(=O)Nc2nccs2)cc1 [SULFATHIAZOLE]	> 30	> 10	> 10	> 30	> 10	> 10	> 10	> 10	> 30	> 30	> 30	–
O=C1CCc2cc(OCCCCc3nnnn3C3CCCCC3)ccc2N1 [CILOSTAZOL]	> 30	> 30	> 30	> 30	> 30	> 30	> 30	> 30	> 30	> 30	18.2	–
CCOC(=O)c1c(C)cc2c(CO)n[nH]c(=O)c2c1C [OXAGRELATE]	–	–	–	–	–	–	–	–	–	–	–	> 30
C[C@]12C=CC(=O)N[C@@H]1CC[C@@H]1[C@@H]2CC[C@]2(C)[C@@H](C(=O)Nc3cc(C(F)(F)F)ccc3C(F)(F)F)CC[C@@H]12 [DUTASTERIDE]	> 30	> 30	> 10	> 10	> 10	> 10	> 10	> 10	> 30	> 10	> 10	–
CC[C@@]1(O)C(=O)OCc2c1cc1n(c2=O)Cc2cc3c([N+](=O)[O-])cccc3nc2-1 [RUBITECAN]	–	–	–	–	–	–	–	–	–	–	–	> 30
N[C@@H](CC(=O)N1CCn2c(nnc2C(F)(F)F)C1)Cc1cc(F)c(F)cc1F [SITAGLIPTIN]	> 30	> 30	> 30	> 10	> 30	> 10	> 30	> 30	> 30	> 30	> 30	–
CC(C)N(CCC(C(N)=O)(c1ccccc1)c1ccccn1)C(C)C (centres undefined) [DISOPYRAMIDE]	> 30	> 10	> 10	> 30	> 10	> 10	> 10	> 30	> 30	> 30	> 30	–
CO[C@H]1/C=C/O[C@@]2(C)Oc3c(C)c(O)c4c(O)c(c(/C=N/N5CCN(C)CC5)c(O)c4c3C2=O)NC(=O)/C(C)=C\C=C\[C@H](C)[C@H](O)[C@@H](C)[C@@H](O)[C@@H](C)[C@H](OC(C)=O)[C@@H]1C [RIFAMPIN]	> 30	> 30	> 30	17.4	> 30	> 30	11	28	8	17.1	27	–
CN(C)CCc1c[nH]c2ccc(Cn3cncn3)cc12 [RIZATRIPTAN]	> 30	> 30	> 30	> 30	> 10	> 30	20.8	> 10	> 10	> 30	> 30	–
